Assay results as given in PMC12263422, “Cryo-EM structure of the human THIK-1 K2P K^+ channel reveals a lower Y gate regulated by lipids and anesthetics” (Nature Structural & Molecular Biology, 2025).
Several values for one entry are separate records, joined by “and”; a condition that tells them apart may be missing. Equal values may be shown once. Read-outs that look alike come from different tables or passages of the source.

Biological target: T1, Human K2P13.1 THIK-1 (WT) (Homo sapiens, UniProt Q9HB14)
T1 construct: expressed in transfected cells; host or cells: Xenopus oocytes (mRNA injection)
T1 sequence (Q9HB14 1-408): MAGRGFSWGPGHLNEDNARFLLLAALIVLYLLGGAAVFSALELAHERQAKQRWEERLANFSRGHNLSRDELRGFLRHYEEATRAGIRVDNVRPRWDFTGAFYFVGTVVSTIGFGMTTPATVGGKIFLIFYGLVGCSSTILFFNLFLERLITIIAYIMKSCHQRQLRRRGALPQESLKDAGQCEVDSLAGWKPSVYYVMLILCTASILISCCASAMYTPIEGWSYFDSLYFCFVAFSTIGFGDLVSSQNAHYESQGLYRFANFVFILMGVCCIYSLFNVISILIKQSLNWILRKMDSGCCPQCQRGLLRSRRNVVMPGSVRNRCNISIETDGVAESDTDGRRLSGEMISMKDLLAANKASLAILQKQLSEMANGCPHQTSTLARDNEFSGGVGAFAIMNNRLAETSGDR
Test: Macroscopic inside-out excised patch recordings from Xenopus oocytes expressing WT THIK-1; compounds applied to the intracellular side
Format: cell-based
Conditions: for Fold activation: THIK-1 WT (unstimulated)

Fold activation (1 µM linoleic acid): 0.98
Fold activation (10 µM linoleic acid): 1.75
Fold activation (30 µM linoleic acid): 2.77
Fold activation (50 µM linoleic acid): 3.38
Fold activation (100 µM linoleic acid): 3.62
Fold activation (150 µM linoleic acid): 4.27
Fold activation (200 µM linoleic acid): 4.21
Fold activation with 30.0 µM linoleic acid (THIK-1 WT, mean): 2.77
EC50 (THIK-1 WT, mean, read-out: Linoleic acid EC50): 28.5 µM
EC50 (applied intracellularly to excised patches, WT, read-out: half-maximal effective concentration (activation)): 29 ± 5 µM
SMILES: CCCCC/C=C\C/C=C\CCCCCCCC(=O)O [linoleic acid]
Fold activation with 30.0 µM linoleic acid (THIK-1 WT, individual recordings): 3.150 and 3.640 and 4.490 and 2.650 and 2.000 and 1.880 and 1.350 and 1.220 and 3.650 and 3.260 and 3.220
